# Results taken from article PMC10885153, “Membrane Permeability in a Large Macrocyclic Peptide Driven by a Saddle-Shaped Conformation” (Journal of the American Chemical Society, 2024).
# Positions of bridges follow the written chain, without caps; N, C: chain ends. Non-standard residues stand in square brackets, D forms with d. Residues, ends and D or L forms follow the SMILES beside them. Cha = N[C@@H](CC1CCCCC1)C(=O)O; NMeAbu = CC[C@H](NC)C(=O)O; NMeC = CN[C@@H](CS)C(=O)O; NMeA = CN[C@@H](C)C(=O)O; dAbu = CC[C@@H](N)C(=O)O; dNMeA = CN[C@H](C)C(=O)O; Nva = CCC[C@H](N)C(=O)O; Abu = CC[C@H](N)C(=O)O; NPrGly = CCCNCC(=O)O; NEtG = CCNCC(=O)O
# Conditions: not given
row,SMILES,PAMPA Pe_avg
1,CCOC(=O)[C@@H]1CSCC(=O)N[C@H](CC)C(=O)N(C)[C@@H](C)C(=O)N[C@H](CC(C)C)C(=O)N2CCC[C@@H]2C(=O)N(CC)CC(=O)N[C@@H](CC(C)C)C(=O)N(C)[C@@H](C)C(=O)N[C@@H](CC(C)C)C(=O)N1C [JF206_ADD_DDLL_Ethyl] ({CH2CO}-[dAbu][NMeA][dL][dP][NEtG]L[NMeA]L[NMeC]-OEt; thioether N-9),0 nm/s
2,CCOC(=O)[C@@H]1CSCC(=O)N[C@H](CC)C(=O)N(C)[C@@H](C)C(=O)N[C@@H](CC(C)C)C(=O)N2CCC[C@@H]2C(=O)N(CC)CC(=O)N[C@H](CC(C)C)C(=O)N(C)[C@H](C)C(=O)N[C@@H](CC(C)C)C(=O)N1C [JF206_ADD_DLDD_Ethyl] ({CH2CO}-[dAbu][NMeA]L[dP][NEtG][dL][dNMeA]L[NMeC]-OEt; thioether N-9),0 nm/s
3,CCOC(=O)[C@@H]1CSCC(=O)N[C@@H](CC)C(=O)N(C)[C@@H](C)C(=O)N[C@H](CC(C)C)C(=O)N2CCC[C@@H]2C(=O)N(CC)CC(=O)N[C@@H](CC(C)C)C(=O)N(C)[C@H](C)C(=O)N[C@@H](CC(C)C)C(=O)N1C [JF206_ADL_LDLD_Ethyl] ({CH2CO}-[Abu][NMeA][dL][dP][NEtG]L[dNMeA]L[NMeC]-OEt; thioether N-9),0 nm/s
4,CCOC(=O)[C@@H]1CSCC(=O)N[C@H](CC)C(=O)N(C)[C@@H](C)C(=O)N[C@@H](CC(C)C)C(=O)N2CCC[C@H]2C(=O)N(CC)CC(=O)N[C@H](CC(C)C)C(=O)N(C)[C@H](C)C(=O)N[C@@H](CC(C)C)C(=O)N1C [JF206_ALD_DLDD_Ethyl] ({CH2CO}-[dAbu][NMeA]LP[NEtG][dL][dNMeA]L[NMeC]-OEt; thioether N-9),0 nm/s

# Same assay, conditions: PAMPA, 10 µM, pH 7.4
SMILES,%R_avg,Pe_avg
"CCC[C@@H]1NC(=O)[C@H](C)N(C)C(=O)[C@H](CC(C)C)NC(=O)CSC[C@@H](C(=O)OCC)N(C)C(=O)[C@H](CC(C)C)NC(=O)[C@H](C)N(C)C(=O)[C@H](CC)NC(=O)CN(CC)C(=O)[C@H]2CCCN2C1=O [LA01, O=C(N(C)[C@H](C(OCC)=O)CSCC(N[C@H](C(N(C)[C@@H](C)C(N[C@@H](CCC)C(N1[C@H](CCC1)C(N(CC)CC(N[C@H]2CC)=O)=O)=O)=O)=O)CC(C)C)=O)[C@H](CC(C)C)NC([C@H](C)N(C)C2=O)=O] ({CH2CO}-L[NMeA][Nva][dP][NEtG][Abu][NMeA]L[NMeC]-OEt; thioether N-9)",33.1%,
"CCC[C@@H]1NC(=O)[C@H](C)N(C)C(=O)[C@H](CC(C)C)NC(=O)CSC[C@@H](C(=O)OCC)N(C)C(=O)[C@H](CC(C)C)NC(=O)[C@H](C)N(C)C(=O)[C@H](CC)NC(=O)CN(CCC)C(=O)[C@H]2CCCN2C1=O [LA03, O=C(N(C)[C@H](C(OCC)=O)CSCC(N[C@H](C(N(C)[C@@H](C)C(N[C@@H](CCC)C(N1[C@H](CCC1)C(N(CCC)CC(N[C@H]2CC)=O)=O)=O)=O)=O)CC(C)C)=O)[C@H](CC(C)C)NC([C@H](C)N(C)C2=O)=O] ({CH2CO}-L[NMeA][Nva][dP][NPrGly][Abu][NMeA]L[NMeC]-OEt; thioether N-9)",25.8%,
"CCC[C@@H]1NC(=O)[C@H](C)N(C)C(=O)[C@H](CC(C)C)NC(=O)CSC[C@@H](C(=O)OCC)N(C)C(=O)[C@H](CC(C)C)NC(=O)[C@H](C)N(C)C(=O)[C@H](CC(C)C)NC(=O)CN(CC)C(=O)[C@H]2CCCN2C1=O [LA05, O=C(N(C)[C@H](C(OCC)=O)CSCC(N[C@H](C(N(C)[C@@H](C)C(N[C@@H](CCC)C(N1[C@H](CCC1)C(N(CC)CC(N[C@H]2CC(C)C)=O)=O)=O)=O)=O)CC(C)C)=O)[C@H](CC(C)C)NC([C@H](C)N(C)C2=O)=O] ({CH2CO}-L[NMeA][Nva][dP][NEtG]L[NMeA]L[NMeC]-OEt; thioether N-9)",12.8%,
"CCOC(=O)[C@@H]1CSCC(=O)N[C@@H](CC(C)C)C(=O)N(C)[C@@H](C)C(=O)N[C@@H](CC(C)C)C(=O)N2CCC[C@@H]2C(=O)N(CC)CC(=O)N[C@@H](CC(C)C)C(=O)N(C)[C@@H](C)C(=O)N[C@@H](CC(C)C)C(=O)N1C [LA06, O=C(N(C)[C@H](C(OCC)=O)CSCC(N[C@H](C(N(C)[C@@H](C)C(N[C@@H](CC(C)C)C(N1[C@H](CCC1)C(N(CC)CC(N[C@H]2CC(C)C)=O)=O)=O)=O)=O)CC(C)C)=O)[C@H](CC(C)C)NC([C@H](C)N(C)C2=O)=O] ({CH2CO}-L[NMeA]L[dP][NEtG]L[NMeA]L[NMeC]-OEt; thioether N-9)",5.1%,
"CCOC(=O)[C@@H]1CSCC(=O)N[C@@H](CC(C)C)C(=O)N(C)[C@@H](C)C(=O)N[C@@H](CC(C)C)C(=O)N2CCC[C@@H]2C(=O)N(CC)CC(=O)N[C@@H](CC2CCCCC2)C(=O)N(C)[C@@H](C)C(=O)N[C@@H](CC(C)C)C(=O)N1C [LA10, O=C(N(C)[C@H](C(OCC)=O)CSCC(N[C@H](C(N(C)[C@@H](C)C(N[C@@H](CC(C)C)C(N1[C@H](CCC1)C(N(CC)CC(N[C@H]2CC3CCCCC3)=O)=O)=O)=O)=O)CC(C)C)=O)[C@H](CC(C)C)NC([C@H](C)N(C)C2=O)=O] ({CH2CO}-L[NMeA]L[dP][NEtG][Cha][NMeA]L[NMeC]-OEt; thioether N-9)",13.0%,0 nm/s
"CCC[C@@H]1NC(=O)[C@H](C)N(C)C(=O)[C@H](CC(C)C)NC(=O)CSC[C@@H](C(=O)OCC)N(C)C(=O)[C@H](CC(C)C)NC(=O)[C@H](C)N(C)C(=O)[C@H](CC2CCCCC2)NC(=O)CN(CCC)C(=O)[C@H]2CCCN2C1=O [LA11, O=C(N(C)[C@H](C(OCC)=O)CSCC(N[C@H](C(N(C)[C@@H](C)C(N[C@@H](CCC)C(N1[C@H](CCC1)C(N(CCC)CC(N[C@H]2CC3CCCCC3)=O)=O)=O)=O)=O)CC(C)C)=O)[C@H](CC(C)C)NC([C@H](C)N(C)C2=O)=O] ({CH2CO}-L[NMeA][Nva][dP][NPrGly][Cha][NMeA]L[NMeC]-OEt; thioether N-9)",6.5%,
"CCCN1CC(=O)N[C@@H](CC2CCCCC2)C(=O)N(C)[C@@H](C)C(=O)N[C@@H](CC(C)C)C(=O)N(C)[C@H](C(=O)OCC)CSCC(=O)N[C@@H](CC(C)C)C(=O)N(C)[C@@H](C)C(=O)N[C@@H](CC(C)C)C(=O)N2CCC[C@@H]2C1=O [LA12, O=C(N(C)[C@H](C(OCC)=O)CSCC(N[C@H](C(N(C)[C@@H](C)C(N[C@@H](CC(C)C)C(N1[C@H](CCC1)C(N(CCC)CC(N[C@H]2CC3CCCCC3)=O)=O)=O)=O)=O)CC(C)C)=O)[C@H](CC(C)C)NC([C@H](C)N(C)C2=O)=O] ({CH2CO}-L[NMeA]L[dP][NPrGly][Cha][NMeA]L[NMeC]-OEt; thioether N-9)",9.2%,0 nm/s
"CCC[C@@H]1NC(=O)CN(CC)C(=O)[C@H](CC(C)C)NC(=O)CSC[C@@H](C(=O)OCC)N(C)C(=O)[C@H](CC(C)C)NC(=O)[C@H](C)N(C)C(=O)[C@H](CC)NC(=O)[C@H](C)N(C)C(=O)[C@H]2CCCN2C1=O [LB01, O=C(N(C)[C@H](C(OCC)=O)CSCC(N[C@H](C1=O)CC(C)C)=O)[C@H](CC(C)C)NC([C@H](C)N(C)C([C@H](CC)NC([C@H](C)N(C)C([C@@H]2N(C([C@H](CCC)NC(CN1CC)=O)=O)CCC2)=O)=O)=O)=O] ({CH2CO}-L[NEtG][Nva][dP][NMeA][Abu][NMeA]L[NMeC]-OEt; thioether N-9)",62.4%,
"CCC[C@@H]1NC(=O)CN(CCC)C(=O)[C@H](CC(C)C)NC(=O)CSC[C@@H](C(=O)OCC)N(C)C(=O)[C@H](CC(C)C)NC(=O)[C@H](C)N(C)C(=O)[C@H](CC)NC(=O)[C@H](C)N(C)C(=O)[C@H]2CCCN2C1=O [LB03, O=C(N(C)[C@H](C(OCC)=O)CSCC(N[C@H](C1=O)CC(C)C)=O)[C@H](CC(C)C)NC([C@H](C)N(C)C([C@H](CC)NC([C@H](C)N(C)C([C@@H]2N(C([C@H](CCC)NC(CN1CCC)=O)=O)CCC2)=O)=O)=O)=O] ({CH2CO}-L[NPrGly][Nva][dP][NMeA][Abu][NMeA]L[NMeC]-OEt; thioether N-9)",61.4%,
"CCOC(=O)[C@@H]1CSCC(=O)N[C@@H](CC(C)C)C(=O)N(CC)CC(=O)N[C@@H](CC(C)C)C(=O)N2CCC[C@@H]2C(=O)N(C)[C@@H](C)C(=O)N[C@@H](CC(C)C)C(=O)N(C)[C@@H](C)C(=O)N[C@@H](CC(C)C)C(=O)N1C [LB06, O=C(N(C)[C@H](C(OCC)=O)CSCC(N[C@H](C1=O)CC(C)C)=O)[C@H](CC(C)C)NC([C@H](C)N(C)C([C@H](CC(C)C)NC([C@H](C)N(C)C([C@@H]2N(C([C@H](CC(C)C)NC(CN1CC)=O)=O)CCC2)=O)=O)=O)=O] ({CH2CO}-L[NEtG]L[dP][NMeA]L[NMeA]L[NMeC]-OEt; thioether N-9)",12.6%,
"CCOC(=O)[C@@H]1CSCC(=O)N[C@@H](CC(C)C)C(=O)N(CC)CC(=O)N[C@@H](CC(C)C)C(=O)N2CCC[C@@H]2C(=O)N(C)[C@@H](C)C(=O)N[C@@H](CC2CCCCC2)C(=O)N(C)[C@@H](C)C(=O)N[C@@H](CC(C)C)C(=O)N1C [LB10, O=C(N(C)[C@H](C(OCC)=O)CSCC(N[C@H](C1=O)CC(C)C)=O)[C@H](CC(C)C)NC([C@H](C)N(C)C([C@H](CC2CCCCC2)NC([C@H](C)N(C)C([C@@H]3N(C([C@H](CC(C)C)NC(CN1CC)=O)=O)CCC3)=O)=O)=O)=O] ({CH2CO}-L[NEtG]L[dP][NMeA][Cha][NMeA]L[NMeC]-OEt; thioether N-9)",8.0%,
"CCC[C@@H]1NC(=O)[C@H](C)N(C)C(=O)[C@H](CC(C)C)NC(=O)CSC[C@@H](C(=O)OCC)N(C)C(=O)[C@H](CC(C)C)NC(=O)[C@H](C)N(C)C(=O)[C@H](CC)NC(=O)[C@H](CC)N(C)C(=O)[C@H]2CCCN2C1=O [LC01, O=C(N(C)[C@H](C(OCC)=O)CSCC(N[C@H](C(N(C)[C@@H](C)C(N[C@@H](CCC)C(N1[C@H](CCC1)C(N(C)[C@@H](CC)C(N[C@H]2CC)=O)=O)=O)=O)=O)CC(C)C)=O)[C@H](CC(C)C)NC([C@H](C)N(C)C2=O)=O] ({CH2CO}-L[NMeA][Nva][dP][NMeAbu][Abu][NMeA]L[NMeC]-OEt; thioether N-9)",30.1%,
